Reference: US7074789B2, “Kinase inhibitors” (Amgen Inc., priority 1999, dated 2006)

What was measured:
Type in all cases: biochemical
[1] = target: T1, Lck (Homo sapiens, UniProt P06239); experiment: Kinase inhibition assay (33P transfer), Lck; conditions: read-out: Lck-1
T1 construct: Kinases are expressed as either kinase domains or full length constructs; made in house
Procedure, shortened: (§1)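 Enzyme activity is taken as the amount of 33PO4 moved from ATP onto poly(Glu, Tyr) 4:1 or poly(Arg, Ser) 3:1 fixed to the plate surface. Unbound label is removed with 0.5% phosphoric acid before scintillation counting.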

[2] = target: T2, Lyn (Homo sapiens, UniProt P07948); experiment: Kinase inhibition assay (33P transfer), Lyn; conditions: Table 6, Lyn-1 kinase inhibition class
T2 construct: Kinases are expressed as either kinase domains or full length constructs; made in house
Procedure, shortened: (§2)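 Kinase domains or full-length enzymes, GST- or polyHis-tagged, were expressed in E. coli or baculovirus High Five cells and affinity-purified. Transfer of 33PO4 from ATP onto plate-bound poly(Glu,Tyr) 4:1 or poly(Arg,Ser) 3:1 was counted by liquid scintillation after a 0.5% phosphoric acid wash. IC50 = concentration halving incorporation.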

[3] = target: T3, Src (Homo sapiens, UniProt P12931); experiment: Kinase inhibition assay (33P transfer), Src; conditions: Table 6, Src-1 kinase inhibition class
T3 construct: Kinases are expressed as either kinase domains or full length constructs; made in house
Procedure, shortened: as §2

[4] = target: T4, Fyn (Homo sapiens, UniProt P06241); experiment: Kinase inhibition assay (33P transfer), Fyn; conditions: read-out: Fyn-1
T4 construct: Kinases are expressed as either kinase domains or full length constructs; made in house
Procedure, shortened: as §2

[5] = target: T5, Zap-70 (Homo sapiens, UniProt P43403); experiment: Kinase inhibition assay (33P transfer), Zap-70; conditions: read-out: Zap-1
T5 construct: Kinases are expressed as either kinase domains or full length constructs; made in house
T5 sequence (P43403 1-619): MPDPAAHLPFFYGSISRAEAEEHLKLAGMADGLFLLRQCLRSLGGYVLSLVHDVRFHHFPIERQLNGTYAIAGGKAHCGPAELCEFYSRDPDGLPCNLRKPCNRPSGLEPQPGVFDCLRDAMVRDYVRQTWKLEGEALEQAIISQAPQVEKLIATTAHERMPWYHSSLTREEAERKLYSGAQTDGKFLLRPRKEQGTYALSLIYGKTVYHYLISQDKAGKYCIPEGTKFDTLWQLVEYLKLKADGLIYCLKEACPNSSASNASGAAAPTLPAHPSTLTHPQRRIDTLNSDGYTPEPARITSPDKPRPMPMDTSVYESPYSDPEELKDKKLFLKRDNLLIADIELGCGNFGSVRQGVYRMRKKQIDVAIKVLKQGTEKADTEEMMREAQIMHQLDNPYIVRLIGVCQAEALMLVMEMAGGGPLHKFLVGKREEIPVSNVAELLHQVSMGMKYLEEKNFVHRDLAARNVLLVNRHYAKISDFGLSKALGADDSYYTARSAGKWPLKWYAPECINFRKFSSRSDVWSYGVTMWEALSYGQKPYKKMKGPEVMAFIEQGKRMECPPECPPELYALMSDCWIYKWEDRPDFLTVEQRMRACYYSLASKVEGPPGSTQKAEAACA
Procedure, shortened: as §1

[6] = target: T6, Itk (Homo sapiens, UniProt Q08881); experiment: Kinase inhibition assay (33P transfer), Itk; conditions: read-out: Itk-1
T6 construct: Kinases are expressed as either kinase domains or full length constructs; made in house
T6 sequence (Q08881 1-620): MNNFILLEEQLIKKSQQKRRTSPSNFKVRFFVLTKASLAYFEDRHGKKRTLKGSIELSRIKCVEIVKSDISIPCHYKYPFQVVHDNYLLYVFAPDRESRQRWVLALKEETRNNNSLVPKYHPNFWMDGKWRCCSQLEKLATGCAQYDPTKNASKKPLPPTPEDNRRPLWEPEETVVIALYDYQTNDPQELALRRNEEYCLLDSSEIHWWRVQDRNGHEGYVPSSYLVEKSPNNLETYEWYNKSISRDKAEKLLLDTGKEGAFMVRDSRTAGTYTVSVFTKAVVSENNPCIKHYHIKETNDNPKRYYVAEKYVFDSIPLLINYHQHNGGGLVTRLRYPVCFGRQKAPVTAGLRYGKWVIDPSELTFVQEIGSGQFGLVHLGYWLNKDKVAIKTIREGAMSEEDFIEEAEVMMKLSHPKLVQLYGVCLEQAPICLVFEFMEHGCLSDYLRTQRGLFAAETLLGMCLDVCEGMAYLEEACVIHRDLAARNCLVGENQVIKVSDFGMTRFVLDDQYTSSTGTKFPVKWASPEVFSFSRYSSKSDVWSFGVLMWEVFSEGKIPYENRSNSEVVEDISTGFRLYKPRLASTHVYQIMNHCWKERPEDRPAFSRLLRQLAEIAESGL
Procedure, shortened: as §2

[7] = target: T7, EGFR (Homo sapiens, UniProt P00533); experiment: Kinase inhibition assay (33P transfer), EGFR; conditions: Table 2, kinase inhibition class; read-out: EGFR-1
T7 construct: Kinases are expressed as either kinase domains or full length constructs; made in house
Procedure, shortened: as §2

[8] = target: T8, ErbB2 (Homo sapiens, UniProt P04626); experiment: Kinase inhibition assay (33P transfer), ErbB2; conditions: read-out: ErbB2-2
T8 construct: Kinases are expressed as either kinase domains or full length constructs; made in house
Procedure, shortened: as §2

[9] = target: T9, Kdr (Homo sapiens, UniProt P35968); experiment: Kinase inhibition assay (33P transfer), Kdr; conditions: read-out: KDR-1
T9 construct: Kinases are expressed as either kinase domains or full length constructs; made in house
Procedure, shortened: as §1

[10] = target: T10, Flt-1 (Homo sapiens, UniProt P17948); experiment: Kinase inhibition assay (33P transfer), Flt-1
T10 construct: Kinases are expressed as either kinase domains or full length constructs; made in house
Procedure, shortened: as §2

[11] = target: T11, Tek (Homo sapiens, UniProt Q02763); experiment: Kinase inhibition assay (33P transfer), Tek; conditions: read-out: Tek-1
T11 construct: Kinases are expressed as either kinase domains or full length constructs; made in house
Procedure, shortened: as §2

[12] = target: T12, c-Met (Homo sapiens, UniProt P08581); experiment: Kinase inhibition assay (33P transfer), c-Met; conditions: Table 2, kinase inhibition class; read-out: Met-1
T12 construct: Kinases are expressed as either kinase domains or full length constructs; made in house
Procedure, shortened: as §2

[13] = target: T13, AKT (Homo sapiens, UniProt Q9Y243); experiment: Kinase inhibition assay (33P transfer), AKT; conditions: Table 2, kinase inhibition class; read-out: AKT3-1
T13 construct: Kinases are expressed as either kinase domains or full length constructs; made in house
Procedure, shortened: as §1

[14] = target: T14, IGFR-1 (Homo sapiens, UniProt P08069); experiment: Kinase inhibition assay, IGFR-1 (Table 2); conditions: Table 2, kinase inhibition class
T14 construct: Kinases are expressed as either kinase domains or full length constructs; made in house

[15] = target: T15, PDGFRB (Homo sapiens, UniProt P09619); experiment: Kinase inhibition assay (33P transfer), PDGFRB; conditions: read-out: PDGFRB-1
T15 construct: Kinases are expressed as either kinase domains or full length constructs; made in house

[16] = target: T16, Hck-1 (Homo sapiens, UniProt P08631); experiment: Kinase inhibition assay (33P transfer), Hck; conditions: Table 6, Hck-1 kinase inhibition class
T16 construct: Kinases are expressed as either kinase domains or full length constructs; made in house

[17] = target: T17, ErbB4 (Homo sapiens, UniProt Q15303); experiment: Kinase inhibition assay (33P transfer), ErbB4; conditions: read-out: ErbB4-1
T17 construct: Kinases are expressed as either kinase domains or full length constructs; made in house

[18] = target: T18, Ret-1 (Homo sapiens, UniProt P07949); experiment: Kinase inhibition assay (33P transfer), Ret; conditions: Table 6, Ret-1 kinase inhibition class
T18 construct: Kinases are expressed as either kinase domains or full length constructs; made in house

[19] = target: T19, FGFR1 (Homo sapiens, UniProt P11362); experiment: Kinase inhibition assay (33P transfer), FGFR1; conditions: read-out: FGFR1-1
T19 construct: Kinases are expressed as either kinase domains or full length constructs; made in house

T3 sequence (P12931 whole entry, species assumed, the tested form may be a part): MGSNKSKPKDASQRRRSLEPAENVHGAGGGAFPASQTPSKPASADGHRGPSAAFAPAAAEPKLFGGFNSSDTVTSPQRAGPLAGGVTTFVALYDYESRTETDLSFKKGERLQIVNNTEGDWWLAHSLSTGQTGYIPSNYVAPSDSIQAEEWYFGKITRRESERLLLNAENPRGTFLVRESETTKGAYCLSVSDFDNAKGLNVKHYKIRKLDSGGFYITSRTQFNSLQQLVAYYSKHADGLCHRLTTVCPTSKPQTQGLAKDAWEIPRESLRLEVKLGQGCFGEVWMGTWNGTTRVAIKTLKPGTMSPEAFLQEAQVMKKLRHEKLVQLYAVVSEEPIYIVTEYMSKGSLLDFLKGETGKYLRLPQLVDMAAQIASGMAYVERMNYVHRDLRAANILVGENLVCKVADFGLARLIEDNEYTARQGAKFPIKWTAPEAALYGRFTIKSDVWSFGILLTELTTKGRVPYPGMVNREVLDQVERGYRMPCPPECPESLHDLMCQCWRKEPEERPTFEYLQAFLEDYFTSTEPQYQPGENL
T15 sequence (P09619 33-1106, species assumed): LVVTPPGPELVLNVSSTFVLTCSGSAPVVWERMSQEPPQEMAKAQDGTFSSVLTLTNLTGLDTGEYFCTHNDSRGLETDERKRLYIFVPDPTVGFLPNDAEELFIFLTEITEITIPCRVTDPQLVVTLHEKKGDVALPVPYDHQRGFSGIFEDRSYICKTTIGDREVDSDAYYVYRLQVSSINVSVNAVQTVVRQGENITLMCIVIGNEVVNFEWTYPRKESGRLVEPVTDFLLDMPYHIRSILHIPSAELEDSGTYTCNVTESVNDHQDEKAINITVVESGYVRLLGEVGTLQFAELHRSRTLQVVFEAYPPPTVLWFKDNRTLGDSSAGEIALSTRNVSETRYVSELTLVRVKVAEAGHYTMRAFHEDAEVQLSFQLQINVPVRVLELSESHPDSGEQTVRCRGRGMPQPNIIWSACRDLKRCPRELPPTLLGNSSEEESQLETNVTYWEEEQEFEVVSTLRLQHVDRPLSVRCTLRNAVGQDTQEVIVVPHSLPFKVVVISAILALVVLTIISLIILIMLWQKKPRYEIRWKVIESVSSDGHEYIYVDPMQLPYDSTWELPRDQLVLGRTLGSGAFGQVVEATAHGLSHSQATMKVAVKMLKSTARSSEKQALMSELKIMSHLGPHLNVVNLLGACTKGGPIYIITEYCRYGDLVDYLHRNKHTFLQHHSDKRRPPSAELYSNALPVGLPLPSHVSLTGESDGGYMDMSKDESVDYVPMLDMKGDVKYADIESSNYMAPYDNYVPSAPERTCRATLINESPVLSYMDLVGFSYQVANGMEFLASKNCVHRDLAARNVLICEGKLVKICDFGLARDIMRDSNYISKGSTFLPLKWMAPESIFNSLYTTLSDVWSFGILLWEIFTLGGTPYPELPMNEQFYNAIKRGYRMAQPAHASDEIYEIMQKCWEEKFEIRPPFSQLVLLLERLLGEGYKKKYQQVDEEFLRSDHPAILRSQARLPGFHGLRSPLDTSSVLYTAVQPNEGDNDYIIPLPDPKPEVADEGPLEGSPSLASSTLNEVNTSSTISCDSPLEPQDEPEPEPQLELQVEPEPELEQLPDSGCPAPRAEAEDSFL
T10 sequence (P17948 27-1338, species assumed): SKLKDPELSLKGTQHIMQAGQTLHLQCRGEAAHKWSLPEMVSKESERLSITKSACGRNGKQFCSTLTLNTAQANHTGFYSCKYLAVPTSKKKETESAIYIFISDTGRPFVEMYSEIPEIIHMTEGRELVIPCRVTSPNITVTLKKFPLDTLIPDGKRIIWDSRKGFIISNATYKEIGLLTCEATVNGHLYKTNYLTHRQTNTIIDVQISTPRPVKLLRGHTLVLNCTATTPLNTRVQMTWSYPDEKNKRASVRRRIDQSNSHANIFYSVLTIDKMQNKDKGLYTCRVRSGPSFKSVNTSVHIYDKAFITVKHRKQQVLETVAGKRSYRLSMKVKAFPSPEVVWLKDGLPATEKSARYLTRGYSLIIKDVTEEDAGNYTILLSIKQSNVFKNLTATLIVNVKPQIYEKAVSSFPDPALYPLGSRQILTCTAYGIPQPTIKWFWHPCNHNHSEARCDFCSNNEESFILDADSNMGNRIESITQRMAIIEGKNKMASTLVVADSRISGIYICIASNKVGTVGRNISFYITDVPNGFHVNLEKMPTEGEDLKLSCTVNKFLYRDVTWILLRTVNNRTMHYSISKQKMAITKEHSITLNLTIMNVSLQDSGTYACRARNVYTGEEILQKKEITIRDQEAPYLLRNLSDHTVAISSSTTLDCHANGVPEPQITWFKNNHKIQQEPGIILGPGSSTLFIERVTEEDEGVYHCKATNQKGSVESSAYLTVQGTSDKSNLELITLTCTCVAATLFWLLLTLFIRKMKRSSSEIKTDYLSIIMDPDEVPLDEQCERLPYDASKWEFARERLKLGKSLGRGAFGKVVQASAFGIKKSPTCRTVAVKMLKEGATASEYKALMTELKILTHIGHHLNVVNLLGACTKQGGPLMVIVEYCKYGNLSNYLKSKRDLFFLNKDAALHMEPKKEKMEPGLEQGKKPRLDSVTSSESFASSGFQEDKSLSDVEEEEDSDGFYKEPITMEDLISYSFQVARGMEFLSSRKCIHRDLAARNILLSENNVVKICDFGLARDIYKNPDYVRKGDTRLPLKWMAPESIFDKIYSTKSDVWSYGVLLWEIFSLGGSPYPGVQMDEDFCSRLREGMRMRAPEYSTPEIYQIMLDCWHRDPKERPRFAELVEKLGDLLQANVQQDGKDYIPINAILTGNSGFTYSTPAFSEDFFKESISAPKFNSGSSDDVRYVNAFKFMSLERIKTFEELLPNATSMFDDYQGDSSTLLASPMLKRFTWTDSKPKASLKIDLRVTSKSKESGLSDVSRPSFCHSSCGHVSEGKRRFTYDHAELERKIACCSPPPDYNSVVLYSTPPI
T8 sequence (P04626 23-1255, species assumed): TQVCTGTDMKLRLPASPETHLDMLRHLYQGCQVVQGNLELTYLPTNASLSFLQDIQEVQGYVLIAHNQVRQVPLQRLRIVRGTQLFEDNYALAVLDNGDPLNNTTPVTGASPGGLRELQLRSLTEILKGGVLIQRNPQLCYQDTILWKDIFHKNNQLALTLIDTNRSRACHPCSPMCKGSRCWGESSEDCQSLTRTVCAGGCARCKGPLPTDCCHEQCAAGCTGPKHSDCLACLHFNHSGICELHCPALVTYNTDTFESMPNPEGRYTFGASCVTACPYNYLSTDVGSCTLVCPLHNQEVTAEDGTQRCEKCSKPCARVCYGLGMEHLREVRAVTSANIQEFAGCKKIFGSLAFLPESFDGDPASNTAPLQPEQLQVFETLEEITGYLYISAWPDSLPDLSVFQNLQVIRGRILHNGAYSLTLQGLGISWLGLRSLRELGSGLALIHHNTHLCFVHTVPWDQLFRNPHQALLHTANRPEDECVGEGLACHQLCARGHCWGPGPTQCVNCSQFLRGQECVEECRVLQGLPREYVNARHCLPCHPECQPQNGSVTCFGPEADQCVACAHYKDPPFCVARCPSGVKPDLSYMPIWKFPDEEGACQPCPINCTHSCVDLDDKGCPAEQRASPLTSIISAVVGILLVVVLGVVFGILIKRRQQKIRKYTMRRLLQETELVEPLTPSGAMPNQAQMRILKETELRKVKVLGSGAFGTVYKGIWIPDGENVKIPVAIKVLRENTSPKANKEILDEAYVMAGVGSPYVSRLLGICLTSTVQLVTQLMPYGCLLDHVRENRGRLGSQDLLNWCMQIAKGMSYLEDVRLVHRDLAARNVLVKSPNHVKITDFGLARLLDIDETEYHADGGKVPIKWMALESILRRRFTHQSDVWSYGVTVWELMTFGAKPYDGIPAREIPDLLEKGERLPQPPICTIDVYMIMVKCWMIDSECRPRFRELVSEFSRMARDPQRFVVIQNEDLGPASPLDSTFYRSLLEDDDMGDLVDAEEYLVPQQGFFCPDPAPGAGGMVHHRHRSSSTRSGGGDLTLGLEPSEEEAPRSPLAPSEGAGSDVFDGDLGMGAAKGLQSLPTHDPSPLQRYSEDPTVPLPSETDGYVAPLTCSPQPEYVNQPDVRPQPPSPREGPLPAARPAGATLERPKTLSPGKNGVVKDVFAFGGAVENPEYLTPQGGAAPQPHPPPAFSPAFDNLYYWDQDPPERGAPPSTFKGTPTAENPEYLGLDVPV
T16 sequence (P08631 whole entry, the tested form may be a part): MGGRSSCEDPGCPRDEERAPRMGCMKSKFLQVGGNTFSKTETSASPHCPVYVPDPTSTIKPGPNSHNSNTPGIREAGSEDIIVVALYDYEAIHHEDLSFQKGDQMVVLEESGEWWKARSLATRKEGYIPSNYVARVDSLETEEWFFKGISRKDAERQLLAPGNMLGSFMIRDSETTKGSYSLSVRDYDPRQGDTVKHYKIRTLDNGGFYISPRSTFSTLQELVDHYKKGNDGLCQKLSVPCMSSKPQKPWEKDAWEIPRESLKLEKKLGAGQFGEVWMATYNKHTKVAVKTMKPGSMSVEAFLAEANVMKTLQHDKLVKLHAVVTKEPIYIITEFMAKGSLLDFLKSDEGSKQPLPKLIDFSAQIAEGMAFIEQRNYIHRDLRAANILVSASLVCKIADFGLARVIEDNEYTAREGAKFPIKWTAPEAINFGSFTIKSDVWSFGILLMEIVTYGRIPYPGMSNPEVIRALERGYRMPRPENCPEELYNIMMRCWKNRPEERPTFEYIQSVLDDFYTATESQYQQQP

Row | Compound | IC50 [1] [µM] | IC50 [2] [µM] | IC50 [3] [µM] | IC50 [4] [µM] | IC50 [5] [µM] | IC50 [6] [µM] | IC50 [7] [µM] | IC50 [8] [µM] | IC50 [9] [µM] | IC50 [10] [µM] | IC50 [11] [µM] | IC50 [12] [µM] | IC50 [13] [µM] | IC50 [14] [µM] | IC50 [15] [µM] | IC50 [16] [µM] | IC50 [17] [µM] | IC50 [18] [µM] | IC50 [19] [µM]
1 | COc1cc(Nc2ncnc(-n3c(N[C@@H](C)c4ccccc4)nc4ccccc43)n2)cc(OC)c1OC [Compound 1033] | < 0.804 | < 0.804 | 0.804 to 4.82 | < 0.804 | > 9.04 | > 9.04 | 4.82 to 7.03 | 7.03 to 9.04 | < 0.804 | < 0.804 | > 9.04 | > 9.04 | > 9.04 | > 9.04 | < 0.804 | > 9.04 | 0.804 to 4.82 | < 0.804 | < 0.804
2 | COc1cc(Nc2ncnc(-c3c(O)[nH]c4ccc(Cl)cc34)n2)cc(OC)c1OC [Compound 517] | 0.935 to 5.61 | 8.18 to 10.5 | > 10.5 | 5.61 to 8.18 | > 10.5 | 8.18 to 10.5 | 5.61 to 8.18 | 5.61 to 8.18 | < 0.935 | < 0.935 | 5.61 to 8.18 | 8.18 to 10.5 | > 10.5 | 0.935 to 5.61 | 0.935 to 5.61 | > 10.5 | > 10.5 | 5.61 to 8.18 | 0.935 to 5.61
3 | C=CCNc1ncccc1-c1ncnc(Nc2cc(OC)c(OC)c(OC)c2)n1 [Compound 1076] | < 1.01 | > 11.4 | 1.01 to 6.08 | 1.01 to 6.08 | > 11.4 | > 11.4 | > 11.4 | > 11.4 | < 1.01 | 1.01 to 6.08 | > 11.4 | > 11.4 | > 11.4 | > 11.4 | < 1.01 | > 11.4 | > 11.4 | < 1.01 | 1.01 to 6.08
4 | COc1ccc(Nc2ncnc(-n3c(N)nc4ccccc43)n2)cc1 [Compound 656] | 1.2 to 7.2 | 7.2 to 10.5 | 7.2 to 10.5 | 10.5 to 13.5 | > 13.5 | 7.2 to 10.5 | 7.2 to 10.5 | 7.2 to 10.5 | < 1.2 | 1.2 to 7.2 | 1.2 to 7.2 | 1.2 to 7.2 | > 13.5 | < 1.2 | 1.2 to 7.2 | 7.2 to 10.5 | 7.2 to 10.5 | 1.2 to 7.2 | 1.2 to 7.2
5 | COc1cc(Nc2ncnc(-n3c(NCc4cccc(F)c4)nc4ccccc43)n2)cc(OC)c1OC [Compound 513] | 0.798 to 4.79 | 0.798 to 4.79 | 6.98 to 8.97 | 6.98 to 8.97 | > 8.97 | > 8.97 | 6.98 to 8.97 | 6.98 to 8.97 | < 0.798 | < 0.798 | > 8.97 | > 8.97 | > 8.97 | 6.98 to 8.97 | < 0.798 | > 8.97 | 4.79 to 6.98 | < 0.798 | < 0.798
